Data reported in article PMC10286312, “Elimination Resistance: Characterizing Multi-compartment Toxicokinetics of the Neonicotinoid Thiacloprid in the Amphipod Gammarus pulex Using Bioconcentration and Receptor-Binding Assays” (Environmental Science & Technology, 2023).

Target: T1, nAChRs (nicotinic acetylcholine receptors) in G. pulex membrane protein extract
T1 construct: gene nAChR alpha; native whole-animal crude membrane protein pellet (43,000g)
Assay: equilibrium binding to membrane protein, unlabelled ligand, ultracentrifugation, online-SPE LC-HRMS/MS
Set-up: species or system Gammarus pulex
Settings: 10 mM Tris-HCl pH 7.4, 23 °C, 2 h; one-site specific binding model; no displacement control described; read-out: best fit
From the text: equilibrium binding to membrane protein, unlabelled ligand, ultracentrifugation, online-SPE LC-HRMS/MS on nAChRs (nicotinic acetylcholine receptors) in G. pulex membrane protein extract

For `N#C/N=C1\SCCN1Cc1ccc(Cl)nc1` [thiacloprid], the Kd was 0.41 nM.
